Results on two compounds are retold here after ChEMBL document CHEMBL4177722, “Small molecule inhibitors of anthrax edema factor” (Bioorg Med Chem Lett, 2018).

Series [1] addresses Interleukin-1 receptor-associated kinase 1 (Homo sapiens) (UniProt P51617). The experiment in a line: Inhibition of human IRAK at 10 uM by ADP-Glo kinase assay. A general note: In ADP-Glo the light output rises with the ADP produced.
Series [2] has as its target Misshapen-like kinase 1 (Homo sapiens) (UniProt Q8N4C8). The experiment in a line: Inhibition of human MINK at 10 uM by ADP-Glo kinase assay.
A short description of series [3]: Drug metabolism in 0.1 M sodium tetraborate (Na2B4O7, pH 10.0) assessed as fluoro-sulphonyl group hydrolysis incubated for 24 hrs by LC-MS method. The format is physicochemical. The following applies: pH 10, 24 h.
The nature of series [4]: Stability in C57BL/6 mouse plasma assessed as half life at 10 uM by LC-MS method. The format is ADME, cell-free, C57B/6.
The target of series [5] is T1, Inhibitor of nuclear factor kappa-B kinase subunit beta (Homo sapiens) (UniProt O14920).
T1 sequence (whole entry): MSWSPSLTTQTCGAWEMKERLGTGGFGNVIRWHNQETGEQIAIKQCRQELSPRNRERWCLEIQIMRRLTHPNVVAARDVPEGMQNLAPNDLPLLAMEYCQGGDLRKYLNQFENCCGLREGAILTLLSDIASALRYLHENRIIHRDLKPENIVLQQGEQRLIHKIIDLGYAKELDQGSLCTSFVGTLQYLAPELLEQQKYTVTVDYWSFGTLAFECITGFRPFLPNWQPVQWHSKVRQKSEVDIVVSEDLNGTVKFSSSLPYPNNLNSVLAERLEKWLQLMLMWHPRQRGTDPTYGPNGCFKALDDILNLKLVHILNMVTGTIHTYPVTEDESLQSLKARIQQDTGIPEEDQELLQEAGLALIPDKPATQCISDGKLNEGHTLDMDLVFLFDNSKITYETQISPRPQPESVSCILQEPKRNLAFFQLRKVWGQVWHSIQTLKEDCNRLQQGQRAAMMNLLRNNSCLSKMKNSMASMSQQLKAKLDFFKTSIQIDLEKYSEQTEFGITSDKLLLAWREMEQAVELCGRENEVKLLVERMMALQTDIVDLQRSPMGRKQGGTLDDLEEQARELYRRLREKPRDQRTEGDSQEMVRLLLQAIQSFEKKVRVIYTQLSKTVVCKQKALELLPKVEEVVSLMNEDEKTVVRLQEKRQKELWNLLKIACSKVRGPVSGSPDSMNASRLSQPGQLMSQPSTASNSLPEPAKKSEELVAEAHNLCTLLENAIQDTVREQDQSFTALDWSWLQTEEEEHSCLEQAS
In words: Inhibition of human IKKbeta at 10 uM by ADP-Glo kinase assay.

Series [6] is described as follows: Stability in C57BL/6 mouse plasma assessed as assessed as parent compound remaining at 10 uM by LC-MS method. The format is ADME, cell-free, C57B/6. The following applies: read-out: Stability.
The target in series [7] is T2, Calmodulin-sensitive adenylate cyclase (Bacillus anthracis) (UniProt P40136).
T2 sequence (whole entry): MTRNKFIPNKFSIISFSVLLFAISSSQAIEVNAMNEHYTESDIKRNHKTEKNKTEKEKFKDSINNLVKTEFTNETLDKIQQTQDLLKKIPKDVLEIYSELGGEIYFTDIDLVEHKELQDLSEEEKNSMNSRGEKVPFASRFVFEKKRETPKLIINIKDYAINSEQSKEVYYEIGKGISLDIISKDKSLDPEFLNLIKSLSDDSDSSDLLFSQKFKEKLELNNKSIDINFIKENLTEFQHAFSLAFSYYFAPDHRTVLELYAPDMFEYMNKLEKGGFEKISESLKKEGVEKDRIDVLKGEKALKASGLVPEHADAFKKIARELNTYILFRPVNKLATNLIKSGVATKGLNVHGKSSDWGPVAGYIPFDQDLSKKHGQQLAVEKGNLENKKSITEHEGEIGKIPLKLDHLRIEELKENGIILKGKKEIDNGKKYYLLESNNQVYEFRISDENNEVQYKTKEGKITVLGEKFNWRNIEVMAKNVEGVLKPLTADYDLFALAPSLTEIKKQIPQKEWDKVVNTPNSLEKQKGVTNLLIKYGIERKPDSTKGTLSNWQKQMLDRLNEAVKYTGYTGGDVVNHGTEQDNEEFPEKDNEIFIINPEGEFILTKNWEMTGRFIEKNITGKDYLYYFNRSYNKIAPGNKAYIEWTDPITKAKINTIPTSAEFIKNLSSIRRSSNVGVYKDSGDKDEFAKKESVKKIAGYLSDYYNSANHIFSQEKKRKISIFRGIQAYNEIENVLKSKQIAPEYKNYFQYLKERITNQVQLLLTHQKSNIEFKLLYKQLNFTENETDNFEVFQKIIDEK
The experiment in a line: Inactivation of Bacillus anthracis edema factor assessed as Kinact/Ki ratio in presence of CaM incubated for 10 to 240 mins by EnzChek pyrophosphate assay relative to FSBA.

Series [8] deals with Death-associated protein kinase 1 (Homo sapiens) (UniProt P53355). The experiment in a line: Inhibition of human DAPK1 at 10 uM by ADP-Glo kinase assay.
Sequence of Death-associated protein kinase 1 (Homo sapiens) (P53355 whole entry, looked up): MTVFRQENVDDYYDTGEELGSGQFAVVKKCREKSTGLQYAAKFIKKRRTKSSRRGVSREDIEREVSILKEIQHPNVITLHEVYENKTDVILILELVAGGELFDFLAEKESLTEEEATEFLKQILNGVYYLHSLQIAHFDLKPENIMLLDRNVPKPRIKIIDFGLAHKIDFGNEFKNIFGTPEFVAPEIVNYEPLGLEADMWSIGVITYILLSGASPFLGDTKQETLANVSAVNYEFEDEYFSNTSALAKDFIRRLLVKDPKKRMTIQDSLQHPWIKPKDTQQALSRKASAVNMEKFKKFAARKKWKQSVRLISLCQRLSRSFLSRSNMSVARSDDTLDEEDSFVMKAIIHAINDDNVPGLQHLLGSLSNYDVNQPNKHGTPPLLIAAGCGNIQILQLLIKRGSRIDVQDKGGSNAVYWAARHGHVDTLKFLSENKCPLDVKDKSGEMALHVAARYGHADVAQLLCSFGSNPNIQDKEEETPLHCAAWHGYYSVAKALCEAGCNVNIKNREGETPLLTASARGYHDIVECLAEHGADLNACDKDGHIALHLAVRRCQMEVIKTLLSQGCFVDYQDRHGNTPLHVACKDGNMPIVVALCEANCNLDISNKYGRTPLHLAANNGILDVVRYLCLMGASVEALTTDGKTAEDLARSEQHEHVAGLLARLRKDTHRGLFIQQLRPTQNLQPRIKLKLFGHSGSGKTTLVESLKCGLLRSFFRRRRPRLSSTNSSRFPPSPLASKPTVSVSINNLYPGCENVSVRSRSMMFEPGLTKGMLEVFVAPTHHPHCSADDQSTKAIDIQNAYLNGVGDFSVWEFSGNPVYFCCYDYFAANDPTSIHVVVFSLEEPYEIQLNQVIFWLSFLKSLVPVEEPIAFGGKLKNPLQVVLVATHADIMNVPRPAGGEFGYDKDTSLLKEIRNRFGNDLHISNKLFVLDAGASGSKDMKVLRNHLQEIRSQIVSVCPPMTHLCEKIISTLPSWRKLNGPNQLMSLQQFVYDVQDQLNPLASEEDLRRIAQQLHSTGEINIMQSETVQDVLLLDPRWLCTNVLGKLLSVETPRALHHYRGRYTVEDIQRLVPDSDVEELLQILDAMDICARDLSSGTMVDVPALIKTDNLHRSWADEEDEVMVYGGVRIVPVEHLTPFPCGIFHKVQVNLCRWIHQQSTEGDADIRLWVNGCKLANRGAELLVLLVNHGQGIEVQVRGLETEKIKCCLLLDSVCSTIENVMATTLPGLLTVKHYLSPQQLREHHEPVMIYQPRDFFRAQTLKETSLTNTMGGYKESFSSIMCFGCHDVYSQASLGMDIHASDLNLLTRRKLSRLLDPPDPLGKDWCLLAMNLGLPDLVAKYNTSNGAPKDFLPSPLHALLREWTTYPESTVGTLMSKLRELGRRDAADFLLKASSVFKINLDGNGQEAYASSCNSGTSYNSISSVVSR
A short description of series [9]: Chemical stability in simulated gastric intestinal fluid at pH 1.7 assessed as parent compound remaining incubated for 24 hrs by LC-MS method. The format is ADME, physicochemical. The note with it: simulated gi fluid, pH 1.7, 24 h.
The nature of series [10]: Chemical stability in 0.1 M K2PO4 at pH 7.4 assessed as parent compound remaining incubated for 24 hrs by LC-MS method. The format is physicochemical. The note with it: buffer, pH 7.4, 24 h.
A short description of series [11]: Chemical stability in 0.1 N HCl at pH 1.2 assessed as parent compound remaining incubated for 24 hrs by LC-MS method. The format is physicochemical. The note with it: buffer, pH 1.2, 24 h.
Series [12] is described as follows: Chemical stability in 0.1 M sodium tetraborate (Na2B4O7, pH 10.0) assessed as parent compound remaining incubated for 24 hrs by LC-MS method. The format is physicochemical. The following applies: 0.1 M sodium tetraborate buffer, read-out: Stability.
Series [13] addresses T2, Calmodulin-sensitive adenylate cyclase (Bacillus anthracis). In words: Inactivation of Bacillus anthracis edema factor assessed as Kinact/Ki ratio in presence of CaM incubated for 10 to 240 mins by EnzChek pyrophosphate assay.

Sequence of Misshapen-like kinase 1 (Homo sapiens) (Q8N4C8 whole entry, looked up): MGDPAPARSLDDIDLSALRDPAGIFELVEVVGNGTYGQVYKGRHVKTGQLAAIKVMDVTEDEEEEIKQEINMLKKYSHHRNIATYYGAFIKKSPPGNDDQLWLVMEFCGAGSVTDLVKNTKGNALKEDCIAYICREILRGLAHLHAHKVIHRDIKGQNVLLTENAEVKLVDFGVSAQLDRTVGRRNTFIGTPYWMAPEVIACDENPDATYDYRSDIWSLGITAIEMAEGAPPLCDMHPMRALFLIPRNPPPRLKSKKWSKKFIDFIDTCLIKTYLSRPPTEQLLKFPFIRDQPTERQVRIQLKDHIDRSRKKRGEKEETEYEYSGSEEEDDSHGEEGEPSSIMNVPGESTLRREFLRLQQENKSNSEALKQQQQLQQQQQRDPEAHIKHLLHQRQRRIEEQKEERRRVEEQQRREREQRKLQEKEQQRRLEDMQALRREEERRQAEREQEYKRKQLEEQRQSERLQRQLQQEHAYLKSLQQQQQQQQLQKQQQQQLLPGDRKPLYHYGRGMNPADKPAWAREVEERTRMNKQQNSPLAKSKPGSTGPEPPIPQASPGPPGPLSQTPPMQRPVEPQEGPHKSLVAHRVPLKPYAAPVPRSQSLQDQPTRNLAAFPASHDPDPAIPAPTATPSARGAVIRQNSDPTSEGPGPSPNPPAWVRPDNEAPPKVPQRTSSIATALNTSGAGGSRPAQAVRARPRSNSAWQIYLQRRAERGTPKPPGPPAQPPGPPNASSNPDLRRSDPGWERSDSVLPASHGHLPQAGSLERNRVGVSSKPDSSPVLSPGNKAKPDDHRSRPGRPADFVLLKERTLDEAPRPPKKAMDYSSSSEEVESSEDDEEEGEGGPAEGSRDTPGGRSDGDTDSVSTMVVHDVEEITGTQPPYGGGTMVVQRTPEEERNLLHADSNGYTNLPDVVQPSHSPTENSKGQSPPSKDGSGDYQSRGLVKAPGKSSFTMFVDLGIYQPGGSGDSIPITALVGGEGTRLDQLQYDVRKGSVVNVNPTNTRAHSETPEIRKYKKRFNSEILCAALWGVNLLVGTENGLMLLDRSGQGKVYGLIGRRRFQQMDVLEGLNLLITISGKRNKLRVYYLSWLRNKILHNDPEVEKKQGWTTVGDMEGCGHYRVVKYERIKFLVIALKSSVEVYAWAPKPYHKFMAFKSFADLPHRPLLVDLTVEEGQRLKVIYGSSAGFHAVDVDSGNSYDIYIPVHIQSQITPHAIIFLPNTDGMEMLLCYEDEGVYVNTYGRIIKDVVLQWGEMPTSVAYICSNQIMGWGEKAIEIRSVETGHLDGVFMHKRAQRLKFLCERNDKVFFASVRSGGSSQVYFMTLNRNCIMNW
Sequence of Interleukin-1 receptor-associated kinase 1 (Homo sapiens) (P51617 whole entry, looked up): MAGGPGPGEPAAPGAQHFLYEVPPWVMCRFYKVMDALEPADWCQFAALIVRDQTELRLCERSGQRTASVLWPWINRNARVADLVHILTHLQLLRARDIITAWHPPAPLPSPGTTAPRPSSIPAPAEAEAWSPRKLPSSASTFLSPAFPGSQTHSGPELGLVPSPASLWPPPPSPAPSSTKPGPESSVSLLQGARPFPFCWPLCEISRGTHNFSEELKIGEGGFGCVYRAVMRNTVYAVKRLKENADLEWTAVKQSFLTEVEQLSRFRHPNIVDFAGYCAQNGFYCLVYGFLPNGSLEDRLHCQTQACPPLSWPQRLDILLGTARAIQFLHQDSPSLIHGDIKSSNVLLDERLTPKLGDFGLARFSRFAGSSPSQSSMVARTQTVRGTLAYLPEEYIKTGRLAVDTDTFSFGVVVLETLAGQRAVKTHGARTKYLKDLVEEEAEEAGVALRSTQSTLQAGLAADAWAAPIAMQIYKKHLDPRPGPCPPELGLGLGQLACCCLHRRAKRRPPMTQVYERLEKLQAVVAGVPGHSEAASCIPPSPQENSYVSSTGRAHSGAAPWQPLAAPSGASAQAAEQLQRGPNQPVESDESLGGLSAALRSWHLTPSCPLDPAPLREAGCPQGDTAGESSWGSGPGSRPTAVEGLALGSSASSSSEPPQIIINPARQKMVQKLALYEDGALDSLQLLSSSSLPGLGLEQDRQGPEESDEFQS

Broadly, the inhibition is the share of the control response that was lost under treatment. Higher therefore signals strong suppression. What is called half-life is the time needed for the level to fall by half in the phase considered. Consider `Nc1ncnc2c1ccn2C1CCN(C(=O)c2ccc(S(=O)(=O)F)cc2)CC1`, for which the inhibition in series [1] worked out at 10%; in series [2], 5%; in series [5], 0%; in series [8] it was 4%. The Drug metabolism entry in series [3] was “Metabolite_Notdetected”. The half-life at 10 µM in [4] was 37.2 min. In addition, the remaining at 10 µM in [6] was less than 5%. Besides, the Ratio was found to be 1050 in series [7] and 14200 in series [13]. The Stability entry in series [9], in series [10] and in [11] was “Stable” in each case. Moreover, in [12], the remaining at 24 h is less than 1%.

As to `Cc1nc(N)c2ccn(C3CCN(C(=O)c4ccc(S(=O)(=O)F)cc4)CC3)c2n1`, the inhibition amounted to 0% in [1], 17% in series [2], 0% in series [5] and 13% in [8]. Moreover, the Ratio in series [7] came out at 234; in series [13] it was 3140.
